The compounds below were run against T1, Glucocorticoid Receptor (GR) (Homo sapiens, UniProt P04150) (assay: GR Florescence Polarization Assay (PolarScreen Glucocorticoid Receptor Competitor Assay, Red)). Details: Fluorescense polarization binding ranges; competition with fluorescent glucocorticoid, incubated overnight at 4° C.
T1 construct: purchased Invitrogen P2893
T1 sequence (P04150 1-777): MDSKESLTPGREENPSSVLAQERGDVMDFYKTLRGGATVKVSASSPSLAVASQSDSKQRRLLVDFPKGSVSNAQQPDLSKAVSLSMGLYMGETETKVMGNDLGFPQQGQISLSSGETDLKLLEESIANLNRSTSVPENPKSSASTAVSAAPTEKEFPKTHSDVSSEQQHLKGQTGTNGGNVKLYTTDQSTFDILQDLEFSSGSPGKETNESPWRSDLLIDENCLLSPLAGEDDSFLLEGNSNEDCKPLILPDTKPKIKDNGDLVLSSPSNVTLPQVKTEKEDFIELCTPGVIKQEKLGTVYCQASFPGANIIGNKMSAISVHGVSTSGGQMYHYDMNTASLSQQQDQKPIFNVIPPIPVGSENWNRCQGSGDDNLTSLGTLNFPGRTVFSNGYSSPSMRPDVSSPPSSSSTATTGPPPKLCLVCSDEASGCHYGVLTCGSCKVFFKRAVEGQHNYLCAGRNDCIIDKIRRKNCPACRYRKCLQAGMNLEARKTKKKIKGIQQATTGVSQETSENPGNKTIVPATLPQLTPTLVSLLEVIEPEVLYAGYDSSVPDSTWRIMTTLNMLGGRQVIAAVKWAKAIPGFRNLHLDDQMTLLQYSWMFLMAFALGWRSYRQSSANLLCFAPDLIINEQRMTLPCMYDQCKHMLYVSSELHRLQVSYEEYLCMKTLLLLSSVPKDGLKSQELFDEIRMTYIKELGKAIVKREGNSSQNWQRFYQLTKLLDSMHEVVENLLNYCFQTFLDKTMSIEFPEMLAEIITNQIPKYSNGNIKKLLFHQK
Procedure, shortened: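 Competitive fluorescence polarization using fluorescent glucocorticoid tracer and human GR in kit buffer. Compounds serially diluted 1:4 in DMSO, incubated with tracer and GR overnight at 4 °C before polarization read.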

IC50 [µM] | SMILES
0.1 to 1 | Cc1ncccc1NC(=O)c1ccc2c(c1)CCC[C@H]1CC(C)(O)CC[C@]21Cc1ccccc1 (stereo in doubt) [Example 91, (7aS,9R,11aR)-11a-benzyl-9-hydroxy-9-methyl-6,7,7a,8,9,10,11,11a-octahydro-5H-dibenzo[a,c]cycloheptene-3-carboxylic acid (2-methyl-pyridin-3-yl)-amide]
0.1 to 1 | COc1ccc2c(c1)CCCC1=CC(=O)CCC12Cc1ccccc1 (centres unmarked) [Example 1, 11b-Benzyl-9-methoxy-1,2,5,6,7,11b-hexahydro-dibenzo[a,c]cyclohepten-3-one]
0.1 to 1 | O=C1C=C2CCCc3cc(O)ccc3C2(Cc2ccccc2)CC1 (centres unmarked) [Example 2, 11b-Benzyl-9-hydroxy-1,2,5,6,7,11b-hexahydro-dibenzo[a,c]cyclohepten-3-one]
0.1 to 1 | O=C1CC[C@@]2(Cc3ccccc3)c3ccc(O)cc3CCC[C@H]2C1.O=C1CC[C@]2(Cc3ccccc3)c3ccc(O)cc3CCC[C@@H]2C1 [Example 4, (4aS,11bS)-11b-Benzyl-9-hydroxy-1,2,4,4a,5,6,7,11b-octahydro-dibenzo[a,c]cyclohepten-3-one; compound with (4aR,11bR)-11b-benzyl-9-hydroxy-1,2,4,4a,5,6,7,11b-octahydro-dibenzo[a,c]cyclohepten-3-one]
0.1 to 1 | O=C1CC[C@@]2(Cc3ccccc3)c3ccc(O)cc3CCC[C@@H]2C1.O=C1CC[C@]2(Cc3ccccc3)c3ccc(O)cc3CCC[C@H]2C1 [Example 5, (4aR,11bS)-11b-benzyl-9-hydroxy-1,2,4,4a,5,6,7,11b-octahydro-dibenzo[a,c]cyclohepten-3-one; compound with (4aS,11bR)-11b-benzyl-9-hydroxy-1,2,4,4a,5,6,7,11b-octahydro-dibenzo[a,c]cyclohepten-3-one]
< 0.1 | Cc1ncccc1NC(=O)c1ccc2c(c1)CCC[C@@H]1C[C@](C)(O)CC[C@@]21Cc1ccccc1.Cc1ncccc1NC(=O)c1ccc2c(c1)CCC[C@H]1C[C@@](C)(O)CC[C@]21Cc1ccccc1 [Example 9, (7aR,9R,11aS)-11a-Benzyl-9-hydroxy-9-methyl-6,7,7a,8,9,10,11,11a-octahydro-5H-dibenzo[a,c]cycloheptene-3-carboxylic acid (2-methyl-pyridin-3-yl)-amide; compound with (7aS,9S,11aR)-11a-benzyl-9-hydroxy-9-methyl-6,7,7a,8,9,10,11,11a-octahydro-5H-dibenzo[a,c]cycloheptene-3-carboxylic acid (2-methyl-pyridin-3-yl)-amide]
< 0.1 | Cc1ncccc1NC(=O)c1ccc2c(c1)CCC[C@@H]1C[C@@](C)(O)CC[C@@]21Cc1ccccc1.Cc1ncccc1NC(=O)c1ccc2c(c1)CCC[C@H]1C[C@](C)(O)CC[C@]21Cc1ccccc1 [Example 10, (7aR,9S,11aS)-11a-benzyl-9-hydroxy-9-methyl-6,7,7a,8,9,10,11,11a-octahydro-5H-dibenzo[a,c]cycloheptene-3-carboxylic acid (2-methyl-pyridin-3-yl)-amide; compound with (7aS,9R,11aR)-11a-benzyl-9-hydroxy-9-methyl-6,7,7a,8,9,10,11,11a-octahydro-5H-dibenzo[a,c]cycloheptene-3-carboxylic acid (2-methyl-pyridin-3-yl)-amide]
< 0.1 | CC[C@@]1(O)CC[C@@]2(Cc3ccccc3)c3ccc(C(=O)Nc4cccnc4C)cc3CCC[C@H]2C1.CC[C@]1(O)CC[C@]2(Cc3ccccc3)c3ccc(C(=O)Nc4cccnc4C)cc3CCC[C@@H]2C1 [Example 12, (7aS,9R,11aS)-11a-Benzyl-9-ethyl-9-hydroxy-6,7,7a,8,9,10,11,11a-octahydro-5H-dibenzo[a,c]cycloheptene-3-carboxylic acid (2-methyl-pyridin-3-yl)-amide; compound with (7aR,9S,11aR)-11a-benzyl-9-ethyl-9-hydroxy-6,7,7a,8,9,10,11,11a-octahydro-5H-dibenzo[a,c]cycloheptene-3-carboxylic acid (2-methyl-pyridin-3-yl)-amide]
0.1 to 1 | CC[C@@]1(O)CC[C@]2(Cc3ccccc3)c3ccc(C(=O)Nc4cccnc4C)cc3CCC[C@@H]2C1.CC[C@]1(O)CC[C@@]2(Cc3ccccc3)c3ccc(C(=O)Nc4cccnc4C)cc3CCC[C@H]2C1 [Example 13, (7aS,9S,11aS)-11a-benzyl-9-ethyl-9-hydroxy-6,7,7a,8,9,10,11,11a-octahydro-5H-dibenzo[a,c]cycloheptene-3-carboxylic acid (2-methyl-pyridin-3-yl)-amide; compound with (7aR,9R,11aR)-11a-benzyl-9-ethyl-9-hydroxy-6,7,7a,8,9,10,11,11a-octahydro-5H-dibenzo[a,c]cycloheptene-3-carboxylic acid (2-methyl-pyridin-3-yl)-amide]
0.1 to 1 | Cc1ncccc1NC(=O)c1ccc2c(c1)NC(=O)C[C@@H]1C[C@@](O)(C(F)(F)F)CC[C@@]21Cc1ccccc1 [Example 20, (7aS,9R,11aS)-11a-Benzyl-9-hydroxy-N-(2-methylpyridin-3-yl)-6-oxo-9-(trifluoromethyl)-6,7,7a,8,9,10,11,11a-octahydro-5H-dibenzo[b,d]azepine-3-carboxamide]
> 10 | Cc1ncccc1NC(=O)c1ccc2c(c1)NC(=O)C[C@H]1CC(O)(C(F)(F)F)CC[C@@]21Cc1ccccc1 (stereo partly drawn) [Example 21, (7aR,11aS)-11a-Benzyl-9-hydroxy-N-(2-methylpyridin-3-yl)-6-oxo-9-(trifluoromethyl)-6,7,7a,8,9,10,11,11a-octahydro-5H-dibenzo[b,d]azepine-3-carboxamide]
> 10 | Cc1ncccc1NC(=O)c1ccc2c(c1)C(=O)NC[C@H]1CC(O)(C(F)(F)F)CC[C@@]21Cc1ccccc1 (stereo partly drawn) [Example 22, (4aS,11bS)-11b-benzyl-3-hydroxy-N-(2-methylpyridin-3-yl)-7-oxo-3-(trifluoromethyl)-2,3,4,4a,5,6,7,11b-octahydro-1H-dibenzo[c,e]azepine-9-carboxamide]
< 0.1 | CCC[C@@]12CC[C@](O)(CC)C[C@@H]1CCCc1cc(C(=O)Nc3cccnc3C)ccc12.CCC[C@]12CC[C@@](O)(CC)C[C@H]1CCCc1cc(C(=O)Nc3cccnc3C)ccc12 [Example 26, (7aR,9S,11aS)-9-Ethyl-9-hydroxy-11a-propyl-6,7,7a,8,9,10,11,11a-octahydro-5H-dibenzo[a,c]cycloheptene-3-carboxylic acid (2-methyl-pyridin-3-yl)-amide; compound with (7aS,9R,11aR)-9-ethyl-9-hydroxy-11a-propyl-6,7,7a,8,9,10,11,11a-octahydro-5H-dibenzo[a,c]cycloheptene-3-carboxylic acid (2-methyl-pyridin-3-yl)-amide]
1 to 10 | CCC[C@@]12CC[C@@](O)(CC)C[C@@H]1CCCc1cc(C(=O)Nc3cccnc3C)ccc12.CCC[C@]12CC[C@](O)(CC)C[C@H]1CCCc1cc(C(=O)Nc3cccnc3C)ccc12 [Example 27, (7aR,9R,11aS)-9-ethyl-9-hydroxy-11a-propyl-6,7,7a,8,9,10,11,11a-octahydro-5H-dibenzo[a,c]cycloheptene-3-carboxylic acid (2-methyl-pyridin-3-yl)-amide; compound with (7aS,9S,11aR)-9-ethyl-9-hydroxy-11a-propyl-6,7,7a,8,9,10,11,11a-octahydro-5H-dibenzo[a,c]cycloheptene-3-carboxylic acid (2-methyl-pyridin-3-yl)-amide]
< 0.1 | CCC[C@@]12CC[C@](O)(Cc3ccccc3)C[C@@H]1CCCc1cc(C(=O)Nc3cccnc3C)ccc12.CCC[C@]12CC[C@@](O)(Cc3ccccc3)C[C@H]1CCCc1cc(C(=O)Nc3cccnc3C)ccc12 [Example 34, (7aS,9R,11aR)-9-Benzyl-9-hydroxy-11a-propyl-6,7,7a,8,9,10,11,11a-octahydro-5H-dibenzo[a,c]cycloheptene-3-carboxylic acid (2-methyl-pyridin-3-yl)-amide; compound with (7aR,9S,11aS)-9-benzyl-9-hydroxy-11a-propyl-6,7,7a,8,9,10,11,11a-octahydro-5H-dibenzo[a,c]cycloheptene-3-carboxylic acid (2-methyl-pyridin-3-yl)-amide]
1 to 10 | CCC[C@@]12CC[C@@](O)(Cc3ccccc3)C[C@@H]1CCCc1cc(C(=O)Nc3cccnc3C)ccc12.CCC[C@]12CC[C@](O)(Cc3ccccc3)C[C@H]1CCCc1cc(C(=O)Nc3cccnc3C)ccc12 [Example 35]
> 10 | O=C1CC[C@@]2(Cc3ccccc3)C(=O)CCCC[C@H]2C1.O=C1CC[C@]2(Cc3ccccc3)C(=O)CCCC[C@@H]2C1 [Example 36, (4aS,9aS)-4a-Benzyl-octahydro-benzocycloheptene-2,5-dione; compound with (4aR,9aR)-4a-benzyl-octahydro-benzocycloheptene-2,5-dione]
